No end group written: not given here.
Tested on: C2C12 myotubes
Test: DEX-induced muscle atrophy model, Western blot
Type: cell-based
Details: 10 μM DEX 24 h, alone or with 10 or 100 μM Myoki
Description: To induce C2C12 myotube differentiation, myoblasts were seeded in 6-well plates at 5 × 10^5 cells per well. Once reaching 90% confluency, they were cultured in DMEM supplemented with 2% horse serum (Thermo Fisher Scientific) and 1% penicillin-streptomycin. […] Differentiation was observed using an optical microscope (LEICA, 100×). Myotube morphology (length and diameter) was quantified in ImageJ (NIH) using the same images: myotube length was measured by tracing the long axis of each myotube (end-to-end), and myotube diameter was measured as the short-axis width at three positions along each myotube; the mean of the three width values was recorded as the diameter. For each experimental group, three randomly captured images (fields) were analyzed, and at least 15–20 myotubes per image were quantified under identical imaging settings.
Treated C2C12 cells (5 × 10^5 cells/well) were harvested in lysis buffer (Sigma-Aldrich, 2910) and centrifuged at 12,000 g for 10 min; proteins in the supernatant were collected. Protein concentrations were measured using the BCA Protein Assay Kit (Thermo Fisher Scientific). Each 20 μg sample was separated using 10% SDS–PAGE and transferred onto a polyvinylidene fluoride membrane (Millipore, Burlington, MA, USA). Non-specific binding was blocked with 5% non-fat dry milk for 1 h. The membranes were incubated overnight with primary antibodies: Anti-Myf5 (Abcam, ab125078), Anti-Myf6 (Abcam, ab182842), Anti-MyoD (Santa Cruz, sc-377460), Anti-MyoG (Santa Cruz, sc-52903), Anti-α-actinin (Santa Cruz, sc-17829), Anti-MYH3 (Santa Cruz, sc-53091), Anti-p-mTOR (Ser2448) (CST, #5536), Anti-p-Akt (Ser473) (CST, #9271), Anti-p-p70 S6 Kinase (Thr389) (CST, #9205), Anti-myostatin (Abcam, ab124721), Anti-atrogin-1/MAFbx (Santa Cruz, sc-166806), and Anti-MuRF1 (Santa Cruz, sc-398608). Membranes were then incubated for 1 h with HRP-conjugated secondary antibodies. Blot images were captured with the ECL system (Amersham, UK) and quantified using ImageJ.

EAEYEHL-OH [Myoki]
MuRF1 expression: significantly and dose-dependently reduced | atrogin-1/MAFbx expression: significantly and dose-dependently reduced | expression levels of differentiated muscle fiber structural proteins: dose-dependently restored toward control levels | phosphorylation levels of muscle growth signaling proteins (Akt, mTOR, p70S6K): dose-dependently restored toward control levels
